Results as given in US20230390315A1, “COMPOSITIONS AND METHODS FOR TREATING ISCHEMIC CONDITIONS” (The Regents of the University of California, priority 2020, published 2023).
“Also recorded” adds a separate entry of the source.

Experiments:
[1] = tested on: bovine choroidal microvascular endothelial cells (BCEC); experiment: BCEC proliferation assay; assay type: cell-based; conditions: for stimulation of BCEC proliferation by structurally related molecules: with or without VEGF, 0.04 μM-5 mM; for block of ManN effects on BCEC proliferation by monosaccharides: monosaccharide at maximum 1:10 molar ratio, added after 2 hours ManN; for stimulatory effect of hexosamines on BCEC proliferation: tested alongside ManN, FIG. 1D
Method: Proliferation assays with BCECs and BRECs were performed. Log-phase growing BCECs or BRECs (passage <10) were trypsinized, re-suspended and seeded in 96-well plates (no coating) in low-glucose DMEM supplemented with 10% bovine calf serum, 2 mM glutamine, and antibiotics (growth medium), at a density of 1200-1500 cells per well in 200 μl volume. All reagents were added at the indicated final concentrations. […] Fluorescence was measured at 530 nm excitation wavelength and 590 nm emission wavelength. The experiments were repeated at least three times. […] On each 96-well plate, untreated and VEGF-treated (10/ng/ml) wells were included to monitor plate-to-plate variations. 20% methanol or 0.05% DMSO served as negative controls. 0.05% DMSO served as negative controls when Cas was tested in these cells. Human […] and human adult […] were split into Gelatin-coated 96 wells (2000 cells per well) in low glucose DMEM containing 10% FBS. 1200 cells/well was set up for proliferation assay in low glucose media containing FBS. […] HUVEC (p7-10) were grown on gelatin-coated plate until it reached 70-80% confluency. On the day of the assay, cells were dissociated with 0.05% trypsin, which was neutralized with 0.5% FBS-containing EBM. Cells were briefly spun and then re-suspended in 0.5% FBS-media. Cells were counted and plated in 96-well, 1000 cells/well. Triplicate wells were used for each treatment. Data were collected at day 3, and then cells were fixed in 4% paraformaldehyde for 15 min before adding crystal violet. Cell-covered areas were quantified after taking pictures by Image J software.

[2] = tested on: ERK, AKT, mTOR, CREB, ACC and eNOS; experiment: Western blot of signal transduction pathways in BCECs; assay type: cell-based, bovine
Method: (§1) Cells were allowed to reach ˜80% confluency in 12-well plates. […] At various time points, plates were taken out of the incubator and kept on ice. Cell monolayers were first washed once with ice-cold PBS before lysis with 250 μl of Pierce RIPA buffer (ThermoFisher Scientific, Rockford, IL) or use 50 mM Tris-HCl (pH 7.6), 150 mM NaCl, 10% Glycerol, 1% NP-40 containing protease/Phosphatase inhibitor cocktail (100×) (Cell signaling, #5872). Lysates were collected and mixed with 4×Bolt LDS Sample Buffer (Novex, Carlsbad, CA) in the presence of Halt protease inhibitors and phosphatase inhibitor cocktail (ThermoFisher scientific, #NP0007). The samples were subjected to SDS-PAGE (Bolt 4-12% Bis-Tris Plus, Invitrogen) using Bolt MES SDS running buffer or NuPAGE 3-8% Tris-Acetate gel using Tris-Acetate SDS running buffer (Novex). HUVECs (passage 6-8) were plated in EBM-2 basal medium (Lonza) with 0.2% FBS. […] Equal amounts of protein lysates were analyzed by SDS-PAGE and blotted with the indicated antibodies. Proteins were transferred using Tris-Glycine buffer with 20% Methanol (Proteonomics grade) (Apex BioResearch Products). Membranes were first incubated with 5% milk in TBST, pH 7.6 (TEKnova, Hollister, CA), followed by blotting with primary and secondary antibodies. ECL anti-rabbit IgG, horseradish peroxidase linked whole antibody from donkey or sheep anti-mouse were obtained from GE Healthcare (UK limited). SuperSignal West Dura Extended Duration substrate was from ThermoFisher Scientific. In some cases, the same PVDF membranes were stripped by 8-min incubation in the Restore Plus Western Blot Stripping Buffer (ThermoFisher Scientific) to show total specific protein expression, followed by second stripping for β-actin expression.

retinal vasculature = experiment: Retinal neovascularization after intravitreal injection; assay type: in vivo, mouse; conditions: intravitreal 500 ng ManN or Kif, 200 ng bFGF; seven days
Method: Assessment of retinal angiogenesis following intravitreal administration was done. Briefly, 6-8 weeks old C57BL/6 male mice were randomly allocated to different groups and anesthetized with ketamine/Xylazine cocktail. The indicated amounts of ManN, Kif or bFGF (R&D systems, AF-233-NA) in 1 μl of PBS and PBS vehicle control were injected intravitreally with a 33-gauge Hamilton syringe. Seven days after injection, animals were euthanized. Eyes were then enucleated and fixed in 4% paraformaldehyde (PFA) for 30 mins. Retinas were separated and stained with anti-CD31 immunofluorescence (IF) to evidence the vasculature. Evaluations were performed by an investigator blinded to the treatment. For CD31 IF, rat anti-mouse antibody (BD Biosciences, CAT #550274) was diluted 1:100 and incubated overnight at 4° C. After 4-hour incubation with the Alexa Fluor-488-conjugated anti-rat antibody (Life Technologies, A11006), whole mounts were imaged via the 488 nm channel using A1R Confocal STORM super-resolution system (Nikon). Quantification of vascular density in choroids and retina was carried out by Image J. Each experiment was repeated three times with similar results, and each treatment group consists of 5 individual samples.

[3] = mouse, in vivo, po
Bip, CHOP and ATF-6 = experiment: Western blot of UPR responsive proteins in BCECs; assay type: cell-based, bovine; conditions: for prevention of CHOP induction by ManN: 2 mM 4-PBA or 500 uM TUDCA, ManN at 400 uM and 5 mM; for restoration of ATF-6 expression: ManN at 400 uM
Method: as §1

ERK and AKT = experiment: Western blot of ERK and AKT activation in HUVEC and hDMVECs; assay type: cell-based, human; conditions: hDMVECs
Method: as §1, with “80%” for “˜80%”, “ECL anti-rabbit IgG, horseradish peroxidase linked whole antibody from donkey or sheep anti-mouse were obtained from GE Healthcare (UK limited). SuperSignal West Dura Extended Duration substrate was from ThermoFisher Scientific. In some cases, the same PVDF membranes were stripped by 8-min incubation in the Restore Plus Western Blot Stripping Buffer (ThermoFisher Scientific) to show total specific protein expression, followed by second stripping for β-actin expression.” left out

[4] = tested on: BCEC confluent monolayers; experiment: BCEC scratch assay; assay type: cell-based, bovine; conditions: over 48 hours relative to control
Method: BCECs (passage 6-10) and HUVEC (passage 6-8) were used in this assay. Cells were grown until about 80% confluency in 6-well plates, washed twice with PBS and then starved in serum-free DMEM (low Glucose, Hyclone) for 5 hrs before making a “scratch” using 1 ml tip. Cell monolayers were briefly washed once with serum-free media, followed by various treatments in media containing 1% FBS. 48 hrs later, the assay was stopped by adding 2 ml 4% paraformaldehyde. 20 min later, fixed cells were stained with 1 ml Crystal Violet (Sigma). Plates were washed gently under the running tap water and air-dried before taking pictures. Images were acquired by ZEISS Discovery […] microscopy equipped with […] camera. Quantification of wound closure was done using AxioVision LE Rel.4.4 software. Six images were taken for each sample and six measurements (in pixel) were made on each image using AxioVision LE Rel.4.4 software.

JNK/c-Jun = experiment: Western blot of JNK pathway activation in BCECs; assay type: cell-based, bovine; conditions: media without growth factors
Method: as §1, with “80%” for “˜80%”

VEGFR2 = experiment: Western blot of VEGFR2 molecular mass in BCECs and BRECs; assay type: cell-based, bovine; conditions: 24 hours; SDS-PAGE
Method: Glycerol-free PNGase F was obtained from New England Biolabs (Ipswich, MA). Briefly, BCECs were lysed with NP-40 containing proteinase inhibitors (Thermo Scientific, Waltham, MA). Lysates were cleared at 4° C. at 5000 g for 25 mins. Total protein content was measured using Pierce BCA protein assay kit (ThermoScientific). […] of protein was mixed with 10× denaturing buffer and H2O to a total volume of […]. Glycoproteins were denatured at 100° C. for 10 mins, followed by adding Glycobuffer and PNGase F. The reaction was carried out at 37° C. for 2 hr.
as §1

In the case of CNC[C@H](O)[C@@H](O)[C@H](O)[C@H](O)CO [meglumine, Meglumine], the “stimulation of BCEC proliferation by structurally related molecules” value (“stimulation of BCEC proliferation” for short) [1] is reported as “None of these molecules stimulated BCEC proliferation”.
For C[C@@H](O[C@H]1[C@H](O)[C@@H](CO)OC(O)[C@@H]1N)C(=O)O (stereo partly drawn) [muramic acid, Muramic acid], the “stimulation of BCEC proliferation” value [1] was “None of these molecules stimulated BCEC proliferation”.
With CC(=O)N[C@@H]1C(O)O[C@H](CO)[C@@H](O)[C@@H]1O (stereo partly drawn) [ManNAc, N-acetyl-Mannosamine, reference compound] the “activation of ERK, AKT, mTOR, CREB, ACC and eNOS by other agents” value ([2]; 40 μM, compared with ManN) was “induced a similar activation”.
With O=C[C@H](O)[C@@H](O)[C@@H](O)[C@H](O)CO [galactose, reference compound] the “block of ManN effects on BCEC proliferation by monosaccharides” value [1] was “not”.
In the case of “bFGF: bFGF growth factor purchased from R&D systems, positive control”, the “increase in density of retinal vessels compared to PBS group” value (retinal vasculature) is reported as “about 35%”.
In the case of N[C@@H]1C(O)O[C@H](COP(=O)(O)O)[C@@H](O)[C@@H]1O (stereo partly drawn) [ManN-6p, ManN-6-phosphate], the “ManN-6p in ischemic leg muscle” value [3] is reported as 0.91+/−0.24 nmol/mg protein.
In the case of Cl.NCC(=O)[C@@H](O)[C@H](O)[C@H](O)CO [D-isoglucosamine, 1-Amino-1-deoxy-D-Fructose hydrochloride], the “stimulation of BCEC proliferation” value [1] is reported as “None of these molecules stimulated BCEC proliferation”.
In the case of C[C@H](O)[C@@H](O)[C@@H](O)[C@H](O)C=O [fucose, reference compound], the “block of ManN effects on BCEC proliferation by monosaccharides” value [1] is reported as “not”.
In the case of O[C@H]1[C@H](O)[C@@H](O)CN2CC[C@H](O)[C@H]12 [Cas, Castanospermine, reference compound], the “BCEC proliferation with N-glycosylation inhibitors” value ([1]; absence or presence of 5 ng/ml VEGF) is reported as “stimulated in a dose-dependent fashion”, the “Bip expression with glycosylation inhibitors” value (Bip, CHOP and ATF-6; media without growth factors for 24 hours) is reported as “dose-dependent induction of Bip expression” and the “activation of ERK” value (ERK and AKT) is reported as “less obvious”. The “activity of glycosylation inhibitors in BCEC scratch assay” value [4] was “significant activity”, the “activation of JNK pathway (JNK and downstream c-Jun)” value (JNK/c-Jun) was “able to activate the JNK pathway” and the “VEGFR2 molecular mass after glycosylation inhibitor treatment” value (VEGFR2) was “reduction in VEGFR2 molecular mass”. For the same compound, the “activation of ERK” value ([2]; 40 uM, BCECs) was “less obvious; also recorded: did not activate ERK”.
With O=C(O)CCCc1ccccc1 [4-PBA, 4-phenylbutyric acid] the “additivity between ManN and VEGF after chemical chaperon pre-treatment” value ([1]; 1 mM 4-PBA) was “largely abolished”, the “reversal of bell-shaped activity of ManN on BCEC proliferation by chemical chaperon” value ([1]; pre-treating with 1 mM 4-PBA for 4 hours, absence or presence of VEGF) was “effectively reverse the bell-shaped activity of ManN” and the “prevention of CHOP induction by ManN” value (Bip, CHOP and ATF-6) was “prevent the induction of CHOP expression”. For the same compound, the “restoration of ATF-6 expression” value (Bip, CHOP and ATF-6) was “restore the expression of ATF-6”.
For C[C@H](CCC(=O)NCCS(=O)(=O)O)[C@H]1CC[C@H]2[C@@H]3[C@@H](O)C[C@@H]4C[C@H](O)CC[C@]4(C)[C@H]3CC[C@]12C [TUDCA, tauroursodeoxycholic acid], the “prevention of CHOP induction by ManN” value (Bip, CHOP and ATF-6) was “not” and the “restoration of ATF-6 expression” value (Bip, CHOP and ATF-6) was “much weaker”.
In the case of N[C@H]1C(O)O[C@H](CO)[C@@H](O)[C@@H]1O (stereo partly drawn) [glucosamine, D-(+)-Glucosamine], the “stimulatory effect of hexosamines on BCEC proliferation” value [1] is reported as “none of these hexosamines had significant stimulatory effects”.
With CC(=O)N[C@H]1[C@H]([C@H](O)[C@H](O)CO)OC(O)(C(=O)O)C[C@@H]1O (stereo partly drawn) [N-Acetyl-neuraminic acid, N-Acetylneuraminic acid] the “stimulation of BCEC proliferation” value [1] was “None of these molecules stimulated BCEC proliferation”.
For N[C@H]1C(O)O[C@H](CO)[C@H](O)[C@@H]1O (stereo partly drawn) [galactosamine, D-(+)-Galactosamine], the “stimulatory effect of hexosamines on BCEC proliferation” value [1] was “none of these hexosamines had significant stimulatory effects”.
